From patent US20260345621A1, “GABAA RECEPTOR MODULATORS AND USES THEREOF” (Engrail Therapeutics, Inc., priority 2022, published 2026)
Like-named read-outs stand apart in the source and are kept apart here.

Key:
[1] = Multiple ascending dose study, plasma pharmacokinetics; assay type: in vivo, human (healthy volunteers); conditions: for Cmax at 24 h / AUC(0-t) at 24 h / Tmax at 24 h: Day 1; for AUC tau / Cmax at 288 h / half-life / Tmax at 288 h: Day 12
Procedure: A clinical study was developed to evaluate safety, tolerability, pharmacokinetics, and pharmacodynamics of Compound 1 at plasma steady-state in 40 healthy human volunteers. Compound 1 (provided as Compound 1 phosphate) was administered to participants as multiple ascending doses of 0.5 mg (N=6), 1.0 mg (N=6), 1.5 mg (N=6), 2.0 mg (N=6), or 5.0 mg (N=6) once daily (QD) for 12 days.
Blood samples were collected, and plasma concentrations were measured using a validated high performance liquid chromatography/liquid chromatography-mass spectrometry/mass spectrometry method. The PK parameters assessed included Cmax, Tmax, AUC from administration to the end of dosing (AUC0-t), AUC0-24, AUC0-inf, t1/2, terminal rate constant (λz), apparent total clearance of the drug from plasma (CL/F), and apparent volume of distribution during terminal phase after non-intravenous administration (Vz/F).
The plasma concentration data for Compound 1 were summarized by dose level and the planned sampling time points using descriptive statistics (n, SD, median, minimum, maximum, geometric mean, and coefficient of variance (CV %) for the geometric mean) for the PK Analysis Set.
Specifically, samples for PK analyses were taken on Day 1 and Day 12 pre-dose, 0.5, 1, 1.5, 3, 6, 8, 10, and 12 h post-dose, with additional samples taken on every dosing Day (24 hours after the previous day's dose) and 24, 72, 168, and 336 h after last dosing on Day 12. All individual Compound 1 concentrations were above the LLOQ of 0.0500 ng/mL at 0.5 h post-dose, except for 1 participant, for whom the concentration was above the LLOQ at 1 h post-dose.

[2] = biological target: human GABAA receptor α2/β3/γ2 (Homo sapiens, UniProt P18507+P47869); assay: SyncroPatch platform, PAM mode, GABAA α2/β3/γ2
human GABAA receptor α2/β3/γ2, sequence (P47869 29-451): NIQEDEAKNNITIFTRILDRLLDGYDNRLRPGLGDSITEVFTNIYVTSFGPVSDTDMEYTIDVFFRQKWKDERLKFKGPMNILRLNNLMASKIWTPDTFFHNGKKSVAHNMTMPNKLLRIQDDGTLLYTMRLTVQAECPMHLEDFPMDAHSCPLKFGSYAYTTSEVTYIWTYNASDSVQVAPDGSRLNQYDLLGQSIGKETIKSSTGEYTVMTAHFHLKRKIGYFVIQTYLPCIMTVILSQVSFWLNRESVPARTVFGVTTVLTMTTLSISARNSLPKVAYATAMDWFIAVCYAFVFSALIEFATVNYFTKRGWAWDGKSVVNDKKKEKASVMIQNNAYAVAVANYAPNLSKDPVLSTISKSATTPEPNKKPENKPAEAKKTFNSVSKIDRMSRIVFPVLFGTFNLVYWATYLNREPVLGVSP
human GABAA receptor α2/β3/γ2, sequence (P18507 40-475): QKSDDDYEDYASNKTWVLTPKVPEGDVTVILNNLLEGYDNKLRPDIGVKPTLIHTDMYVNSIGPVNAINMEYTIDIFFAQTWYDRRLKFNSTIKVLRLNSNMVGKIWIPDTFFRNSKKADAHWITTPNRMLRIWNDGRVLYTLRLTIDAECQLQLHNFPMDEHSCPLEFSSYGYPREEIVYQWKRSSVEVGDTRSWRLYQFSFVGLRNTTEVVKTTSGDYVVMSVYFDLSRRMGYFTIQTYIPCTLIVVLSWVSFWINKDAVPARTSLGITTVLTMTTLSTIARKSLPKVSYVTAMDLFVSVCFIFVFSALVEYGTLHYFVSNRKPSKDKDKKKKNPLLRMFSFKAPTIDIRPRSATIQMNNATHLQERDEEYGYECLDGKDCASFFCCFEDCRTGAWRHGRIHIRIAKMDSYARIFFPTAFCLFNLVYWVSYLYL
human GABAA receptor α2/β3/γ2, sequence (P28472 26-473 partner): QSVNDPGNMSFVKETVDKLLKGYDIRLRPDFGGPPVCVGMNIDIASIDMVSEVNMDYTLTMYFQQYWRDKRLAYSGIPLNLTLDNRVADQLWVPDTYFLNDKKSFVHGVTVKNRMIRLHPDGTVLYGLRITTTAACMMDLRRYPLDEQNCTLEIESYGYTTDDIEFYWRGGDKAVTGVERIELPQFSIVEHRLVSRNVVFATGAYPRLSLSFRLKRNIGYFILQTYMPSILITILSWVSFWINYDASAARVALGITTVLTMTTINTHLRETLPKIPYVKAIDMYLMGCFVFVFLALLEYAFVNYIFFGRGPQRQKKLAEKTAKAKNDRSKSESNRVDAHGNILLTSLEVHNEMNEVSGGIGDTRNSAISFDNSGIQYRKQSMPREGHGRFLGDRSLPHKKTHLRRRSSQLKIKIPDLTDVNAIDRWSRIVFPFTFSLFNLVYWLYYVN

[3] = biological target: human GABAA receptor α5/β3/γ2 (Homo sapiens, UniProt P18507+P31644); assay: SyncroPatch platform, PAM mode, GABAA α5/β3/γ2
human GABAA receptor α5/β3/γ2, sequence (P31644 32-462): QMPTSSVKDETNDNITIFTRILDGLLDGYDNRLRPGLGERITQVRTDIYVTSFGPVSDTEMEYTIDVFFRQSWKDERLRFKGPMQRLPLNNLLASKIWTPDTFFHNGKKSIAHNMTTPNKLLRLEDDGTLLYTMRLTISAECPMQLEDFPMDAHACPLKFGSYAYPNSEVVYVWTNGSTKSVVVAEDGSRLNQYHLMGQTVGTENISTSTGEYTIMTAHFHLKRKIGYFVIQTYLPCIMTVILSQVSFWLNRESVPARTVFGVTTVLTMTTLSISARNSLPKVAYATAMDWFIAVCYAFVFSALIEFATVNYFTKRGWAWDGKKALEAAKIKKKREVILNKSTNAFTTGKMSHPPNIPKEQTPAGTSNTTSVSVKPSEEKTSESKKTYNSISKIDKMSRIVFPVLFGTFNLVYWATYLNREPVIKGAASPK
human GABAA receptor α5/β3/γ2, sequence (P18507 40-475): as the sequence (P18507 40-475) above
human GABAA receptor α5/β3/γ2, sequence (P28472 26-473 partner): as the sequence (P28472 26-473 partner) above

[4] = human, plasma, po, 1.5 mg, 1.5 mg oral QD, read-out: Cmax (median)
[5] = human, plasma, po, 2 mg, 2.0 mg oral QD, read-out: Cmax (mean)
[6] = human, plasma, po, 2 mg, 2.0 mg oral QD, read-out: Cmax (median)
[7] = human, plasma, po, 5 mg, 5.0 mg oral QD, read-out: Cmax (mean)
[8] = human, plasma, po, 5 mg, 5.0 mg oral QD, read-out: Cmax (median)
[9] = human, plasma, 0.5 mg oral QD, read-out: Tmax (median)
[10] = human, plasma, 1.0 mg oral QD, read-out: Tmax (median)
[11] = human, plasma, 1.5 mg oral QD, read-out: Tmax (median)
[12] = human, plasma, 2.0 mg oral QD, read-out: Tmax (median)
[13] = human, plasma, 5.0 mg oral QD, read-out: Tmax (median)

Q: For `CC(C)(O)c1cnn2c(-c3ccc(F)c(-c4c(F)cccc4C#N)c3)cnc2n1` [Compound 1, 2′,6-difluoro-5′-(3-(2-hydroxypropan-2-yl)imidazo[1,2-b][1,2,4]triazin-7-yl)-[1,1′-biphenyl]-2-carbonitrile], which Cmax at 24 h [1, 4] is on record?
A: Its Cmax at 24 h is 18.2 ng/mL.

Q: And the AUC tau ([1]; human, plasma, po, 1.5 mg, 1.5 mg oral QD, read-out: AUCtau (mean))?
A: Its AUC tau is 706 ± 84 ng·h/mL.

Q: And the AUC tau ([1]; human, plasma, po, 1.5 mg, 1.5 mg oral QD, read-out: AUCtau (median))?
A: Its AUC tau is 738 ng·h/mL.

Q: What about the Cmax at 288 h ([1]; human, plasma, po, 1.5 mg, 1.5 mg oral QD, read-out: Cmax (mean)) of the same molecule?
A: The Cmax at 288 h was 41.7 ± 5 ng/mL.

Q: And the Cmax at 288 h [1, 4]?
A: The Cmax at 288 h was 42.6 ng/mL.

Q: What about the half-life ([1]; human, plasma, po, 1.5 mg, 1.5 mg oral QD, read-out: t1/2 (mean) (converted)) of the same molecule?
A: The half-life was 2.12 ± 0.75 days.

Q: What about the half-life ([1]; human, plasma, po, 1.5 mg, 1.5 mg oral QD, read-out: t1/2 (median) (converted)) of the same molecule?
A: Its half-life is 2.04 days.

Q: And the AUC(0-t) at 24 h ([1]; human, plasma, po, 2 mg, 2.0 mg oral QD, read-out: AUC0-24 (mean))?
A: Its AUC(0-t) at 24 h is 244 ± 48 ng·h/mL.

Q: And the AUC(0-t) at 24 h ([1]; human, plasma, po, 2 mg, 2.0 mg oral QD, read-out: AUC0-24 (median))?
A: Its AUC(0-t) at 24 h is 226 ng·h/mL.

Q: What about the Cmax at 24 h [1, 5] of the same molecule?
A: Its Cmax at 24 h is 19.6 ± 4 ng/mL.

Q: What about the Cmax at 24 h [1, 6] of the same molecule?
A: The Cmax at 24 h was 19.9 ng/mL.

Q: What about the AUC tau ([1]; human, plasma, po, 2 mg, 2.0 mg oral QD, read-out: AUCtau (mean)) of the same molecule?
A: The AUC tau was 873 ± 331 ng·h/mL.

Q: And the AUC tau ([1]; human, plasma, po, 2 mg, 2.0 mg oral QD, read-out: AUCtau (median))?
A: Its AUC tau is 891 ng·h/mL.

Q: And the Cmax at 288 h [1, 5]?
A: The Cmax at 288 h was 49.8 ± 17 ng/mL.

Q: And the Cmax at 288 h [1, 6]?
A: The Cmax at 288 h was 48.2 ng/mL.

Q: What about the half-life ([1]; human, plasma, po, 2 mg, 2.0 mg oral QD, read-out: t1/2 (mean) (converted)) of the same molecule?
A: The half-life was 2.54 ± 1.08 days.

Q: What about the half-life ([1]; human, plasma, po, 2 mg, 2.0 mg oral QD, read-out: t1/2 (median) (converted)) of the same molecule?
A: Its half-life is 2.18 days.

Q: What about the AUC(0-t) at 24 h ([1]; human, plasma, po, 5 mg, 5.0 mg oral QD, read-out: AUC0-24 (mean)) of the same molecule?
A: The AUC(0-t) at 24 h was 642 ± 125 ng·h/mL.

Q: And the AUC(0-t) at 24 h ([1]; human, plasma, po, 5 mg, 5.0 mg oral QD, read-out: AUC0-24 (median))?
A: Its AUC(0-t) at 24 h is 609 ng·h/mL.

Q: And the Cmax at 24 h [1, 7]?
A: The Cmax at 24 h was 49.7 ± 13 ng/mL.

Q: And the Cmax at 24 h [1, 8]?
A: The Cmax at 24 h was 49.5 ng/mL.

Q: And the AUC(0-t) at 24 h ([1]; human, plasma, po, 5 mg, 5.0 mg oral QD, read-out: highest individual AUC0-24)?
A: Its AUC(0-t) at 24 h is 853 ng·h/mL.

Q: What about the AUC tau ([1]; human, plasma, po, 5 mg, 5.0 mg oral QD, read-out: AUCtau (mean)) of the same molecule?
A: The AUC tau was 1800 ng·h/mL.

Q: What about the AUC tau ([1]; human, plasma, po, 5 mg, 5.0 mg oral QD, read-out: AUCtau (median)) of the same molecule?
A: Its AUC tau is 1800 ng·h/mL.

Q: And the Cmax at 288 h [1, 7]?
A: The Cmax at 288 h was 99.1 ng/mL.

Q: And the Cmax at 288 h [1, 8]?
A: The Cmax at 288 h was 106 ng/mL.

Q: What about the AUC tau ([1]; human, plasma, po, 5 mg, 5.0 mg oral QD, read-out: highest individual AUCtau) of the same molecule?
A: The AUC tau was 2170 ng·h/mL.

Q: What about the half-life ([1]; human, plasma, po, 5 mg, 5.0 mg oral QD, read-out: t1/2 (mean) (converted)) of the same molecule?
A: Its half-life is 1.62 ± 0.375 days.

Q: And the half-life ([1]; human, plasma, po, 5 mg, 5.0 mg oral QD, read-out: t1/2 (median) (converted))?
A: Its half-life is 1.55 days.

Q: What about the concentration at 0.5 h ([1]; human, plasma, po, 0.5 h post-dose, all except 1 participant, read-out: individual plasma concentrations versus LLOQ) of the same molecule?
A: The concentration at 0.5 h was > 0.05 ng/mL.

Q: What about the Tmax ([1]; human, plasma, po, Day 1 and Day 12, all doses except 5.0 mg on Day 1, read-out: Tmax (median)) of the same molecule?
A: The Tmax was 3 h.

Q: And the Tmax at 24 h [1, 9]?
A: The Tmax at 24 h was 3 h.

Q: And the Tmax at 288 h [1, 9]?
A: The Tmax at 288 h was 3 h.

Q: And the Tmax at 24 h [1, 10]?
A: Its Tmax at 24 h is 3 h.

Q: What about the Tmax at 288 h [1, 10] of the same molecule?
A: Its Tmax at 288 h is 3 h.

Q: What about the Tmax at 24 h [1, 11] of the same molecule?
A: The Tmax at 24 h was 3 h.

Q: And the Tmax at 288 h [1, 11]?
A: Its Tmax at 288 h is 3 h.

Q: What about the Tmax at 24 h [1, 12] of the same molecule?
A: The Tmax at 24 h was 3 h.

Q: What about the Tmax at 288 h [1, 12] of the same molecule?
A: Its Tmax at 288 h is 3 h.

Q: And the Tmax at 24 h [1, 13]?
A: The Tmax at 24 h was 4.5 h.

Q: And the Tmax at 288 h [1, 13]?
A: Its Tmax at 288 h is 3 h.

Q: What about the Tmax at 24 h ([1]; human, plasma, up to 2.0 mg oral QD, read-out: Tmax (median)) of the same molecule?
A: The Tmax at 24 h was 3 h.

Q: And the absorption ([1]; oral)?
A: The absorption was “rapidly absorbed”.

Q: What about the “end of absorption and distribution phase” value ([1]; plasma, after which elimination phase commenced) of the same molecule?
A: The value was “approximately 12 h”.

Q: What about the concentration decline profile ([1]; plasma, oral QD) of the same molecule?
A: Its concentration decline profile is “bi-exponential decline”.

Q: And the “variability in key PK parameters” value ([1]; up to 5.0 mg repeatedly for 12 days)?
A: The value was “acceptable”.

Q: And the EC50 [2]?
A: Its EC50 is 0.82 nM.

Q: And the Emax [2]?
A: Its Emax is 89%.

Q: And the EC50 [3]?
A: The EC50 was 0.2 nM.

Q: What about the Emax [3] of the same molecule?
A: The Emax was 96%.
